From ChEMBL document CHEMBL4342414, “Activity of 2,6,9-trisubstituted purines as potent PDGFRα kinase inhibitors with antileukaemic activity” (Eur J Med Chem, 2019)

tested on: EOL1; assay: Cytotoxicity against FIP1L1-PDGFRA positive human EOL-1 cells assessed as growth inhibition after 72 hrs by resazurin dye-based fluorescence analysis; assay type: functional; details: EOL1, 72 h

With `Cc1ccc(NC(=O)c2ccc(CN3CCN(C)CC3)cc2)cc1Nc1nccc(-c2cccnc2)n1` [IMATINIB] as the molecule, how does the GI50 read?
Its GI50 is less than 0.5 nM.

For `N[C@H]1CC[C@H](Nc2nc(Nc3cccc(CN4CCOCC4)c3)c3ncn(C4CCC(O)C4)c3n2)CC1` (stereo partly specified), which GI50 is on record?
The GI50 was 9 nM.

For `Nc1ccccc1-c1ccc(Nc2nc(N[C@H]3CC[C@H](N)CC3)nc3c2ncn3C2CCCC2)cc1`, which GI50 is on record?
Its GI50 is 18 nM.

With `N[C@H]1CC[C@H](Nc2nc(Nc3ccc(-c4ccccc4O)cc3)c3ncn(C4CCCC4)c3n2)CC1` as the molecule, how does the GI50 read?
Its GI50 is 53 nM.

For `NCCCCNc1nc(Nc2ccc(CN3CCOCC3)cc2)c2ncn(C3CCC(O)C3)c2n1` (stereo unspecified), which GI50 is on record?
Its GI50 is 36 nM.

With `OCCCNc1nc(Nc2ccc(Oc3nccs3)cc2)c2ncn(C3CCCC3)c2n1` as the molecule, how does the GI50 read?
The GI50 was 442 nM.

Which GI50 does the source give for `N[C@H]1CC[C@H](Nc2nc(Nc3ccc(-n4cncn4)cc3)c3ncn(C4CCCC4)c3n2)CC1` here?
The GI50 was 8 nM.

For `N[C@H]1CC[C@H](Nc2nc(Nc3ccc(N4CCN(Cc5ccccc5)CC4)cc3)c3ncn(C4CCCC4)c3n2)CC1`, which GI50 is on record?
The GI50 was 22 nM.

For `N[C@H]1CC[C@H](Nc2nc(Nc3ccc(N4CCN(Cc5ccccc5)CC4)cc3)c3ncn(C4CCC(O)C4)c3n2)CC1` (stereo partly specified), which GI50 is on record?
Its GI50 is 11 nM.

Which GI50 does the source give for `OCCCCNc1nc(Nc2ccc(N3CCN(Cc4ccccc4)CC3)cc2)c2ncn(C3CCC(O)C3)c2n1` (stereo unspecified) here?
Its GI50 is 223 nM.

Which GI50 does the source give for `NCCCCNc1nc(Nc2ccc(Oc3nccs3)cc2)c2ncn(C3CCCC3)c2n1` here?
The GI50 was 118 nM.

tested on: not listed separately; assay: Selectivity index, ratio of GI50 for human BJ cells to GI50 for FIP1L1-PDGFRA positive human EOL-1 cells after 72 hrs by resazurin dye-based fluorescence analysis; details: not given

With `Cc1ccc(NC(=O)c2ccc(CN3CCN(C)CC3)cc2)cc1Nc1nccc(-c2cccnc2)n1` [IMATINIB] as the molecule, how does the RatioGI50 read?
Its RatioGI50 is greater than 80000.

tested on: K562; assay: Cytotoxicity against human K562 cells assessed as growth inhibition after 72 hrs by resazurin dye-based fluorescence analysis; assay type: functional; details: K562, 72 h

For `Cc1ccc(NC(=O)c2ccc(CN3CCN(C)CC3)cc2)cc1Nc1nccc(-c2cccnc2)n1` [IMATINIB], which GI50 is on record?
The GI50 was 730 nM.

With `N[C@H]1CC[C@H](Nc2nc(Nc3cccc(CN4CCOCC4)c3)c3ncn(C4CCC(O)C4)c3n2)CC1` (stereo partly specified) as the molecule, how does the GI50 read?
The GI50 was 1850 nM.

For `Nc1ccccc1-c1ccc(Nc2nc(N[C@H]3CC[C@H](N)CC3)nc3c2ncn3C2CCCC2)cc1`, which GI50 is on record?
The GI50 was 1070 nM.

For `N[C@H]1CC[C@H](Nc2nc(Nc3ccc(-c4ccccc4O)cc3)c3ncn(C4CCCC4)c3n2)CC1`, which GI50 is on record?
The GI50 was 2080 nM.

With `NCCCCNc1nc(Nc2ccc(CN3CCOCC3)cc2)c2ncn(C3CCC(O)C3)c2n1` (stereo unspecified) as the molecule, how does the GI50 read?
Its GI50 is 2230 nM.

For `OCCCNc1nc(Nc2ccc(Oc3nccs3)cc2)c2ncn(C3CCCC3)c2n1`, which GI50 is on record?
Its GI50 is 11300 nM.

With `N[C@H]1CC[C@H](Nc2nc(Nc3ccc(-n4cncn4)cc3)c3ncn(C4CCCC4)c3n2)CC1` as the molecule, how does the GI50 read?
Its GI50 is 1560 nM.

Which GI50 does the source give for `N[C@H]1CC[C@H](Nc2nc(Nc3ccc(N4CCN(Cc5ccccc5)CC4)cc3)c3ncn(C4CCCC4)c3n2)CC1` here?
The GI50 was 970 nM.

For `N[C@H]1CC[C@H](Nc2nc(Nc3ccc(N4CCN(Cc5ccccc5)CC4)cc3)c3ncn(C4CCC(O)C4)c3n2)CC1` (stereo partly specified), which GI50 is on record?
Its GI50 is 652 nM.

With `OCCCCNc1nc(Nc2ccc(N3CCN(Cc4ccccc4)CC3)cc2)c2ncn(C3CCC(O)C3)c2n1` (stereo unspecified) as the molecule, how does the GI50 read?
The GI50 was 3720 nM.

Which GI50 does the source give for `NCCCCNc1nc(Nc2ccc(Oc3nccs3)cc2)c2ncn(C3CCCC3)c2n1` here?
The GI50 was 5980 nM.

tested on: HCC827; assay: Cytotoxicity against human HCC827 cells assessed as growth inhibition after 72 hrs by resazurin dye-based fluorescence analysis; assay type: functional; details: HCC827, 72 h

For `Cc1ccc(NC(=O)c2ccc(CN3CCN(C)CC3)cc2)cc1Nc1nccc(-c2cccnc2)n1` [IMATINIB], which GI50 is on record?
Its GI50 is greater than 40000 nM.

For `N[C@H]1CC[C@H](Nc2nc(Nc3cccc(CN4CCOCC4)c3)c3ncn(C4CCC(O)C4)c3n2)CC1` (stereo partly specified), which GI50 is on record?
Its GI50 is 1670 nM.

With `Nc1ccccc1-c1ccc(Nc2nc(N[C@H]3CC[C@H](N)CC3)nc3c2ncn3C2CCCC2)cc1` as the molecule, how does the GI50 read?
Its GI50 is 810 nM.

Which GI50 does the source give for `N[C@H]1CC[C@H](Nc2nc(Nc3ccc(-c4ccccc4O)cc3)c3ncn(C4CCCC4)c3n2)CC1` here?
The GI50 was 2530 nM.

Which GI50 does the source give for `NCCCCNc1nc(Nc2ccc(CN3CCOCC3)cc2)c2ncn(C3CCC(O)C3)c2n1` (stereo unspecified) here?
Its GI50 is 3240 nM.

Which GI50 does the source give for `OCCCNc1nc(Nc2ccc(Oc3nccs3)cc2)c2ncn(C3CCCC3)c2n1` here?
Its GI50 is 6490 nM.

Which GI50 does the source give for `N[C@H]1CC[C@H](Nc2nc(Nc3ccc(-n4cncn4)cc3)c3ncn(C4CCCC4)c3n2)CC1` here?
Its GI50 is 1420 nM.

For `N[C@H]1CC[C@H](Nc2nc(Nc3ccc(N4CCN(Cc5ccccc5)CC4)cc3)c3ncn(C4CCCC4)c3n2)CC1`, which GI50 is on record?
The GI50 was 918 nM.

With `N[C@H]1CC[C@H](Nc2nc(Nc3ccc(N4CCN(Cc5ccccc5)CC4)cc3)c3ncn(C4CCC(O)C4)c3n2)CC1` (stereo partly specified) as the molecule, how does the GI50 read?
Its GI50 is 840 nM.

With `OCCCCNc1nc(Nc2ccc(N3CCN(Cc4ccccc4)CC3)cc2)c2ncn(C3CCC(O)C3)c2n1` (stereo unspecified) as the molecule, how does the GI50 read?
The GI50 was 3960 nM.

With `NCCCCNc1nc(Nc2ccc(Oc3nccs3)cc2)c2ncn(C3CCCC3)c2n1` as the molecule, how does the GI50 read?
Its GI50 is 6310 nM.

tested on: not listed separately; assay: Cytotoxicity against human BJ cells assessed as growth inhibition after 72 hrs by resazurin dye-based fluorescence analysis; assay type: cell-based; details: not given

For `Cc1ccc(NC(=O)c2ccc(CN3CCN(C)CC3)cc2)cc1Nc1nccc(-c2cccnc2)n1` [IMATINIB], which GI50 at 72 h is on record?
Its GI50 at 72 h is greater than 40000 nM.

Which GI50 at 72 h does the source give for `N[C@H]1CC[C@H](Nc2nc(Nc3cccc(CN4CCOCC4)c3)c3ncn(C4CCC(O)C4)c3n2)CC1` (stereo partly specified) here?
Its GI50 at 72 h is greater than 40000 nM.

With `Nc1ccccc1-c1ccc(Nc2nc(N[C@H]3CC[C@H](N)CC3)nc3c2ncn3C2CCCC2)cc1` as the molecule, how does the GI50 at 72 h read?
Its GI50 at 72 h is 12500 nM.

For `N[C@H]1CC[C@H](Nc2nc(Nc3ccc(-c4ccccc4O)cc3)c3ncn(C4CCCC4)c3n2)CC1`, which GI50 at 72 h is on record?
Its GI50 at 72 h is 9590 nM.

Which GI50 at 72 h does the source give for `NCCCCNc1nc(Nc2ccc(CN3CCOCC3)cc2)c2ncn(C3CCC(O)C3)c2n1` (stereo unspecified) here?
Its GI50 at 72 h is 4900 nM.

With `OCCCNc1nc(Nc2ccc(Oc3nccs3)cc2)c2ncn(C3CCCC3)c2n1` as the molecule, how does the GI50 at 72 h read?
The GI50 at 72 h was 34100 nM.

For `N[C@H]1CC[C@H](Nc2nc(Nc3ccc(-n4cncn4)cc3)c3ncn(C4CCCC4)c3n2)CC1`, which GI50 at 72 h is on record?
Its GI50 at 72 h is 14700 nM.

With `N[C@H]1CC[C@H](Nc2nc(Nc3ccc(N4CCN(Cc5ccccc5)CC4)cc3)c3ncn(C4CCCC4)c3n2)CC1` as the molecule, how does the GI50 at 72 h read?
The GI50 at 72 h was 10000 nM.

With `N[C@H]1CC[C@H](Nc2nc(Nc3ccc(N4CCN(Cc5ccccc5)CC4)cc3)c3ncn(C4CCC(O)C4)c3n2)CC1` (stereo partly specified) as the molecule, how does the GI50 at 72 h read?
The GI50 at 72 h was 16900 nM.

Which GI50 at 72 h does the source give for `OCCCCNc1nc(Nc2ccc(N3CCN(Cc4ccccc4)CC3)cc2)c2ncn(C3CCC(O)C3)c2n1` (stereo unspecified) here?
Its GI50 at 72 h is 23800 nM.

Which GI50 at 72 h does the source give for `NCCCCNc1nc(Nc2ccc(Oc3nccs3)cc2)c2ncn(C3CCCC3)c2n1` here?
Its GI50 at 72 h is 18600 nM.

tested on: not listed separately; assay: Cytotoxicity against human CEM cells assessed as growth inhibition after 72 hrs by resazurin dye-based fluorescence analysis; assay type: cell-based; details: CEM (CCRF-CEM) cells

Which GI50 at 72 h does the source give for `Cc1ccc(NC(=O)c2ccc(CN3CCN(C)CC3)cc2)cc1Nc1nccc(-c2cccnc2)n1` [IMATINIB] here?
The GI50 at 72 h was 35800 nM.

With `N[C@H]1CC[C@H](Nc2nc(Nc3cccc(CN4CCOCC4)c3)c3ncn(C4CCC(O)C4)c3n2)CC1` (stereo partly specified) as the molecule, how does the GI50 at 72 h read?
Its GI50 at 72 h is 1650 nM.

With `Nc1ccccc1-c1ccc(Nc2nc(N[C@H]3CC[C@H](N)CC3)nc3c2ncn3C2CCCC2)cc1` as the molecule, how does the GI50 at 72 h read?
Its GI50 at 72 h is 677 nM.

With `N[C@H]1CC[C@H](Nc2nc(Nc3ccc(-c4ccccc4O)cc3)c3ncn(C4CCCC4)c3n2)CC1` as the molecule, how does the GI50 at 72 h read?
Its GI50 at 72 h is 1490 nM.

With `NCCCCNc1nc(Nc2ccc(CN3CCOCC3)cc2)c2ncn(C3CCC(O)C3)c2n1` (stereo unspecified) as the molecule, how does the GI50 at 72 h read?
The GI50 at 72 h was 5510 nM.

Which GI50 at 72 h does the source give for `OCCCNc1nc(Nc2ccc(Oc3nccs3)cc2)c2ncn(C3CCCC3)c2n1` here?
The GI50 at 72 h was 23000 nM.

With `N[C@H]1CC[C@H](Nc2nc(Nc3ccc(-n4cncn4)cc3)c3ncn(C4CCCC4)c3n2)CC1` as the molecule, how does the GI50 at 72 h read?
The GI50 at 72 h was 871 nM.

With `N[C@H]1CC[C@H](Nc2nc(Nc3ccc(N4CCN(Cc5ccccc5)CC4)cc3)c3ncn(C4CCCC4)c3n2)CC1` as the molecule, how does the GI50 at 72 h read?
The GI50 at 72 h was 582 nM.

For `N[C@H]1CC[C@H](Nc2nc(Nc3ccc(N4CCN(Cc5ccccc5)CC4)cc3)c3ncn(C4CCC(O)C4)c3n2)CC1` (stereo partly specified), which GI50 at 72 h is on record?
The GI50 at 72 h was 540 nM.

Which GI50 at 72 h does the source give for `OCCCCNc1nc(Nc2ccc(N3CCN(Cc4ccccc4)CC3)cc2)c2ncn(C3CCC(O)C3)c2n1` (stereo unspecified) here?
Its GI50 at 72 h is 9080 nM.

Which GI50 at 72 h does the source give for `NCCCCNc1nc(Nc2ccc(Oc3nccs3)cc2)c2ncn(C3CCCC3)c2n1` here?
Its GI50 at 72 h is 8640 nM.
